pEC50: −log10 of the molar value. Where a name gives a salt, the structure may show the parent alone. Read-outs that look alike come from different tables or passages of the source.
Molecular target: T1, human MCR4 receptor (Homo sapiens, UniProt P32245)
T1 construct: expressed in transfected cells
Experiment: MCR4 improved functional assay (Protocol E): CHO-K1-MC4R-CRE-β-lactamase reporter
Format: cell-based
Source text: (ii) MCR5 Standard Functional Assay Methodology and MCR4 Improved Functional Assay Methodology [Assay Protocol D and E Respectively] […] These cell lines were engineered using protocols akin to those outlined by Zaccolo et al (Zaccolo, M., (2000) Nature, 2(1); 25-29). Compound-induced activation of the MCR5 or MCR4 receptors in these two cell lines stimulated the production, and intracellular accumulation, of the enzyme β-lactamase. The quantity of β-lactamase enzyme produced was directly proportional to the degree to which the test compound activated the MCR5 or MCR4 receptors present on these cells and was quantified using the P-lactamase gene reporter analysis kit that is commercially available from Invitrogen Life Technologies. An in-depth description of this technology and assay protocols are available from the Invitrogen web site (www.invitrogen.com). The protocol listed below provides a summary of that assay methodology. The quantity of β-lactamase enzyme produced by compound-induced activation of the MCR5 or MCR4 receptors expressed in these cell lines was quantified using a LjI Biosystems Analyst™ HT 96.384 plate reader set to excite at a wave length of 405 nm, and measure the energy emitted at wave lengths of 450 nm and 530 nm. Cellular responses were quantified by dividing the measured energy emitted at a wavelength of 450 nm by the measured energy emitted at a wavelength of 530 nm. […] CCF4-AM was dissolved in 100% DMSO to give a final solution concentration of 1 mM. This solution was termed Solution A. Probenecid was dissolved in 200 mM NaOH to give a final solution concentration of 200 mM. This solution was termed Solution D. Composition of the β-lactamase assay dye solution: for 1072 μL of assay dye solution combine: 12 μL of Solution A, 60 μL of Solution B, 925 μL of Solution C and 75 μL of Solution D. […] Cells were grown in T225 vent cap flasks containing 50 ml of growth medium and maintained in a cell incubator at a temperature of 37° C. and in an environment containing 5% CO2. The composition of the growth medium for the CHO-K1-MC5R-CRE-β-lactamase was 90% v/v DMEM supplemented with; Glutamax-1, 25 mM HEPES, 10% v/v foetal calf serum (FCS), 1 mM sodium pyruvate, 0.1 mM non essential amino acids and 800 μg/ml genetic in. For the CHO-K1-MC4R-CRE-β-lactamase this growth media was further supplemented with […] Zeocin. Cells were harvested when they reached 80-90% confluency by first removing the existing growth medium and then washing with PBS that had been pre-warmed to a temperature of 37° C. This PBS was then removed and 5 ml of cell dissociation fluid added to the flask. These cells were incubated for 5 minutes in a cell incubator set at a temperature of 37° C. and in an environment containing 5% CO2 to detach the cells. When cells were detached, pre-warmed growth media was added, the cells re-suspended and mixed gently to achieve a single cell suspension by pipetting. This cell suspension was then used for experimentation, or transferred into a new T225 flask to perpetuate the cell culture. […] For each assay the cell plates were then retuned to a cell incubator maintained at a temperature of 37° C. and in an environment containing 5% CO2 overnight before performing the assay on the second assay day. […] For the MCR4 improved functional assay methodology the solution of cyclohexamide was not added. Subsequently, 10 μL of the test compound solution was transferred to the assay plate. The assay plate was then transferred to a cell incubator, set at 37° C. and in an environment containing 5% CO2, and left for 4 hours for the MCR4 improved assay methodology, or 5 hours for the MCR5 standard assay methodology. After this incubation period the plate was removed from the incubator, 10 μL of the […] assay dye solution was added to each well and then the plate returned to the cell incubator.

[1] = Protocols C or E, read-out: functional potency at the MC4 receptor (EC50)
[2] = functional potency at the MC4 receptor (EC50), Protocols C or E

T1 sequence (P32245 whole entry): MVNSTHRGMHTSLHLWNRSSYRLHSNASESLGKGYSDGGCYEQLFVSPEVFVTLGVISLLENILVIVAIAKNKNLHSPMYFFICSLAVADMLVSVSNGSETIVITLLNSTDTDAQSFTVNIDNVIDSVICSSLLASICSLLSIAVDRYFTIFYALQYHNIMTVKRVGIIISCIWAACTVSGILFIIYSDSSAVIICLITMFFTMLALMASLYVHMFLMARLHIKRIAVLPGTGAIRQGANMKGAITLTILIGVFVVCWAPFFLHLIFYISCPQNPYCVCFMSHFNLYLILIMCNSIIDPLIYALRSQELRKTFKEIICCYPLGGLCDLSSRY

Structure (SMILES): C[C@@H]1CN(C(=O)[C@@H]2CN(C(C)(C)C)C[C@H]2c2ccc(F)cc2F)C[C@H](C)[C@@]1(O)c1ccc(F)c(F)c1 [Example 8, (3R,4R,5S)-1-{[(3S,4R)-1-tert-Butyl-4-(2,4-difluorophenyl)pyrrolidin-3-yl]carbonyl}-4-(3,4-difluorophenyl)-3,5-dimethylpiperidin-4-ol hydrochloride]
- pEC50 [1]: > 8.00

Structure (SMILES): C[C@@H]1CN(C(=O)[C@@H]2CN(C(C)(C)C)C[C@H]2c2ccc(F)cc2F)C[C@H](C)[C@@]1(O)c1ccc(F)cc1 [Example 9, (3R,4R,5S)-1-{[(3S,4R)-1-tert-butyl-4-(2,4-difluorophenyl)pyrrolidin-3-yl]carbonyl}-4-(4-fluorophenyl)-3,5-dimethylpiperidin-4-ol hydrochloride]
- pEC50 [1]: > 8.00

Structure (SMILES): CC(C)N1C[C@@H](C(=O)N2C[C@@H](C)[C@](O)(c3ccc(F)cc3)[C@@H](C)C2)[C@H](c2ccc(F)cc2F)C1 [Example 10, (3R,4R,5S)-1-{[(3S,4R)-4-(2,4-difluorophenyl)-1-isopropylpyrrolidin-3-yl]carbonyl}-4-(4-fluorophenyl)-3,5-dimethylpiperidin-4-ol hydrochloride]
- pEC50 [1]: > 6.82

Structure (SMILES): CCN1C[C@@H](C(=O)N2C[C@@H](C)[C@](O)(c3ccc(OC)cc3)[C@@H](C)C2)[C@H](c2ccc(F)cc2F)C1 [Example 14, (3R,4R,5S)-1-{[(3S,4R)-4-(2,4-difluorophenyl)-1-ethylpyrrolidin-3-yl]carbonyl}-4-(4-methoxyphenyl)-3,5-dimethylpiperidin-4-ol hydrochloride]
- pEC50 [1]: > 6.82

Structure (SMILES): C[C@@H]1CN(C(=O)[C@@H]2CNC[C@H]2c2ccc(F)cc2F)C[C@H](C)[C@@]1(O)c1ccc(F)cc1F [Example 16, (3R,4R,5S)-4-(2,4-difluorophenyl)-1-{[(3S,4R)-4-(2,4-difluorophenyl)pyrrolidin-3-yl]carbonyl}-3,5-dimethylpiperidin-4-ol hydrochloride]
- pEC50 [1]: > 6.82
- pEC50 (Table 6, read-out: MCR4 EC50): 7.27

Structure (SMILES): C[C@@H]1CN(C(=O)[C@@H]2CN(C(C)(C)C)C[C@H]2c2ccc(F)cc2F)C[C@H](C)[C@@]1(O)c1c(F)cccc1F [Example 17, (3R,4R,5S)-1-[{(3S,4R)-1-tert-butyl-4-(2,4-difluorophenyl)pyrrolidin-3-yl]carbonyl}-4-(2,6-difluorophenyl)-3,5-dimethylpiperidin-4-ol hydrochloride]
- pEC50 [1]: > 7.30

Structure (SMILES): C[C@@H]1CN(C(=O)[C@@H]2CN(C(C)(C)C)C[C@H]2c2ccc(F)cc2F)C[C@H](C)[C@@]1(O)c1cccc(F)c1 [Example 19, (3R,4R,5S)-1-{[(3S,4R)-1-tert-butyl-4-(2,4-difluorophenyl)pyrrolidin-3-yl]carbonyl}-4-(3-fluorophenyl)-3,5-dimethylpiperidin-4-ol hydrochloride]
- pEC50 [2]: > 8.00

Structure (SMILES): C[C@@H]1CN(C(=O)[C@@H]2CNC[C@H]2c2ccc(F)cc2F)C[C@H](C)[C@@]1(O)c1cccc(F)c1 [Example 20, (3R,4R,5S)-1-{[(3S,4R)-4-(2,4-difluorophenyl)pyrrolidin-3-yl]carbonyl}-4-(3-fluorophenyl)-3,5-dimethylpiperidin-4-ol hydrochloride]
- pEC50 [1]: > 6.82

Structure (SMILES): C[C@@H]1CN(C(=O)[C@@H]2CN(c3cnccn3)C[C@H]2c2ccc(F)cc2F)C[C@H](C)[C@@]1(O)c1ccccc1 [Example 33, (3R,4R,5S)-1-{[(3S,4R)-4-(2,4-Difluorophenyl)-1-pyrazin-2-ylpyrrolidin-3-yl]carbonyl}-3,5-dimethyl-4-phenylpiperidin-4-ol hydrochloride]
- pEC50 [1]: > 6.82

Structure (SMILES): C[C@@H]1CN(C(=O)[C@@H]2CN(c3cccnc3)C[C@H]2c2ccc(F)cc2F)C[C@H](C)[C@@]1(O)c1ccccc1 [Example 34, (3R,4R,5S)-1-{[(3S,4R)-4-(2,4-Difluorophenyl)-1-pyridin-3-ylpyrrolidin-3-yl]carbonyl}-3,5-dimethyl-4-phenylpiperidin-4-ol hydrochloride]
- pEC50 [1]: > 8.00
- pEC50 (Table 6, read-out: MCR4 EC50): 8.40

Structure (SMILES): C[C@@H]1CN(C(=O)[C@@H]2CN(c3cncnc3)C[C@H]2c2ccc(F)cc2F)C[C@H](C)[C@@]1(O)c1ccccc1 [Example 36, (3R,4R,5S)-1-{[(3S,4R)-4-(2,4-Difluorophenyl)-1-pyrimidin-5-ylpyrrolidin-3-yl]carbonyl}-3,5-dimethyl-4-phenylpiperidin-4-ol hydrochloride]
- pEC50 [1]: > 6.82

Structure (SMILES): CCC[C@@]1(O)[C@H](C)CN(C(=O)[C@@H]2CN(C(C)(C)C)C[C@H]2c2ccc(F)cc2F)C[C@@H]1C [Example 40, (3R,4R,5S)-1-{[(3S,4R)-1-tert-Butyl-4-(24-difluorophenyl)pyrrolidin-3-yl]carbonyl}-3,5-dimethyl-4-propylpiperidin-4-ol hydrochloride]
- pEC50 [1]: > 6.82

Structure (SMILES): C[C@@H]1CN(C(=O)[C@@H]2CN(c3ccncn3)C[C@H]2c2ccc(F)cc2F)C[C@H](C)[C@@]1(O)c1ccccc1 [Example 42, (3R,4R,5S)-1-{[(3S,4R)-4-(2,4-difluorophenyl)-1-pyrimidin-4-ylpyrrolidin-3-yl]carbonyl}-3,5-dimethyl-4-phenylpiperidin-4-ol hydrochloride]
- pEC50 [1]: > 8.00

Structure (SMILES): C[C@@H]1CN(C(=O)[C@@H]2CN(c3ccncn3)C[C@H]2c2ccc(F)cc2F)C[C@H](C)[C@@]1(O)c1ccccn1 [Example 44, (3R,4R,5S)-1-{[(3S,4R)-4-(2,4-difluorophenyl)-1-pyrimidin-4-ylpyrrolidin-3-yl]carbonyl}-3,5-dimethyl-4-pyridin-2-ylpiperidin-4-ol hydrochloride]
- pEC50 [1]: > 7.30

Structure (SMILES): C[C@@H]1CN(C(=O)[C@@H]2CN(c3cccnn3)C[C@H]2c2ccc(F)cc2F)C[C@H](C)[C@@]1(O)c1ccccn1 [Example 47, (3R,4R,5S)-1-{[(3S,4R)-4-(2,4-Difluorophenyl)-1-pyridazin-3-ylpyrrolidin-3-yl]carbonyl}-3,5-dimethyl-4-pyridin-2-ylpiperidin-4-ol hydrochloride]
- pEC50 [1]: > 8.00

Structure (SMILES): C[C@@H]1CN(C(=O)[C@@H]2CNC[C@H]2c2ccc(Cl)cc2)C[C@H](C)[C@@]1(O)c1ccccc1 [Example 48, (3R,4R,5S)-1-{[(3S,4R)-4-(4-Chlorophenyl)pyrrolidin-3-yl]carbonyl}-3,5-dimethyl-4-phenylpiperidin-4-ol hydrochloride]
- pEC50 [1]: > 6.82

Structure (SMILES): CC(C)N1C[C@@H](C(=O)N2C[C@@H](C)[C@](O)(c3ccc(Cl)cc3)[C@@H](C)C2)[C@H](c2ccc(F)cc2F)C1 [Example 50, (3R,4R,5S)-4-(4-chlorophenyl)-1-{[(3S,4R)-4-(2,4-difluorophenyl)-1-isopropylpyrrolidin-3-yl]carbonyl}-3,5-dimethylpiperidin-4-ol hydrochloride]
- pEC50 [1]: > 6.82

Structure (SMILES): CC(C)N1C[C@@H](C(=O)N2C[C@@H](C)[C@](O)(c3ccc(F)c(F)c3)[C@@H](C)C2)[C@H](c2ccc(F)cc2F)C1 [Example 51, (3R,4R,5S)-4-(3,4-difluorophenyl)-1-{[(3S,4R)-4-(2,4-difluorophenyl)-1-isopropylpyrrolidin-3-yl]carbonyl}-3,5-dimethylpiperidin-4-ol hydrochloride]
- pEC50 [1]: > 7.30

Structure (SMILES): CC(C)N1C[C@@H](C(=O)N2C[C@@H](C)[C@](O)(c3ccc(F)cc3F)[C@@H](C)C2)[C@H](c2ccc(F)cc2F)C1 [Example 52, (3R,4R,5S)-4-(2,4-difluorophenyl)-1-{[(3S,4R)-4-(2,4-difluorophenyl)-1-isopropylpyrrolidin-3-yl]carbonyl}-3,5-dimethylpiperidin-4-ol hydrochloride]
- pEC50 [1]: > 7.30

Structure (SMILES): CCN1C[C@@H](C(=O)N2C[C@@H](C)[C@](O)(c3cccc(F)c3)[C@@H](C)C2)[C@H](c2ccc(F)cc2F)C1 [Example 53, (3R,4R,5S)-1-{[(3S,4R)-4-(2,4-difluorophenyl)-1-ethylpyrrolidin-3-yl]carbonyl}-4-(3-fluorophenyl)-3,5-dimethylpiperidin-4-ol hydrochloride]
- pEC50 [2]: > 7.30

— US7649002B2, “(3,5-dimethylpiperidin-1yl)(4-phenylpyrrolidin-3-yl)methanone derivatives as MCR4 agonists” (Pfizer Inc, priority 2004, dated 2010)
